In ChEMBL document CHEMBL5614439, “Targeting Thyroid-Stimulating Hormone Receptor: A Perspective on Small-Molecule Modulators and Their Therapeutic Potential” (J Med Chem, 2024):
Each block holds one compound with its values, some of them ahead of it.

Experiments:
Thyrotropin receptor [1] = biological target: T1, Thyrotropin receptor (Homo sapiens, UniProt P16473); experiment: Agonist activity at TSHR (unknown origin) stably expressed in HEK293 cells assessed as intracellular cAMP accumulation incubated for 1 hr; assay type: functional, cell-based
[2] = biological target: Lutropin-choriogonadotropic hormone receptor (Homo sapiens, UniProt P22888); experiment: Agonist activity at LHCGR (unknown origin); assay type: functional
[3] = biological target: T2, Follicle-stimulating hormone receptor (Homo sapiens, UniProt P23945); experiment: Agonist activity at FSHR (unknown origin); assay type: functional
T2 sequence (P23945 whole entry): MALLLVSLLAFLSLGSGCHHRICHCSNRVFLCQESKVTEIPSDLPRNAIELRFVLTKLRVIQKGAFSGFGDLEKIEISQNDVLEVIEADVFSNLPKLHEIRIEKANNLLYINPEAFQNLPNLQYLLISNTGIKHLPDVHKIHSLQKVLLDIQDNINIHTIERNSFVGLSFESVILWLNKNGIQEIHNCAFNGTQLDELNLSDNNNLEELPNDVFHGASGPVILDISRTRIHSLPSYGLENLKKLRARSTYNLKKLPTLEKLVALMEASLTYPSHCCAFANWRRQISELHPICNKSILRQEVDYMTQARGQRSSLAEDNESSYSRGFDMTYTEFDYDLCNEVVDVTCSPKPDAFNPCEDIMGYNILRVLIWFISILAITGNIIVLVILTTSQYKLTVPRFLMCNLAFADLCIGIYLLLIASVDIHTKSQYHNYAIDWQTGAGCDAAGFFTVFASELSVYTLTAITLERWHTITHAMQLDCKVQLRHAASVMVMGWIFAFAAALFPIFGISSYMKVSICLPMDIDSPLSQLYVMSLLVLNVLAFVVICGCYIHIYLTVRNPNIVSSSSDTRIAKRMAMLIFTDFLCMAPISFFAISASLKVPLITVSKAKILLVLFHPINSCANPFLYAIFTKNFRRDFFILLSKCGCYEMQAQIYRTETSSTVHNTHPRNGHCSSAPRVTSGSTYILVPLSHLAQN

Thyrotropin receptor [4] = biological target: T1, Thyrotropin receptor; experiment: Inverse agonist activity at TSH receptor (unknown origin) stably expressed in HEK293 cells assessed as reduction in TSH-induced cAMP production incubated for 40 mins by ELISA analysis; assay type: functional, cell-based
Thyrotropin receptor [5] = biological target: T1, Thyrotropin receptor; experiment: Agonist activity at N-terminal HA-tagged TSHR (unknown origin) stably expressed in CHO cells assessed as change in intracellular […] level incubated for 60 mins by CRE-driven luciferase reporter based microplate reader; assay type: functional, cell-based
Thyrotropin receptor [6] = biological target: T1, Thyrotropin receptor; experiment: Agonist activity at TSHR (unknown origin); assay type: functional
Thyrotropin receptor [7] = biological target: T1, Thyrotropin receptor; experiment: Agonist activity at TSHR (unknown origin) expressed in CHO cells; assay type: functional, cell-based
Thyrotropin receptor [8] = biological target: T1, Thyrotropin receptor; experiment: Agonist activity at N-terminal HA-tagged TSHR (unknown origin) assessed as intracellular calcium level measured for 60 mins by HTS assay; assay type: functional, cell-based
[9] = Inhibition of b-TSH-induced C-terminal GFP-tagged mouse TSHR activation expressed in HEK293 cells by cAMP assay; assay type: cell-based

Chain of Lutropin-choriogonadotropic hormone receptor (P22888 whole entry): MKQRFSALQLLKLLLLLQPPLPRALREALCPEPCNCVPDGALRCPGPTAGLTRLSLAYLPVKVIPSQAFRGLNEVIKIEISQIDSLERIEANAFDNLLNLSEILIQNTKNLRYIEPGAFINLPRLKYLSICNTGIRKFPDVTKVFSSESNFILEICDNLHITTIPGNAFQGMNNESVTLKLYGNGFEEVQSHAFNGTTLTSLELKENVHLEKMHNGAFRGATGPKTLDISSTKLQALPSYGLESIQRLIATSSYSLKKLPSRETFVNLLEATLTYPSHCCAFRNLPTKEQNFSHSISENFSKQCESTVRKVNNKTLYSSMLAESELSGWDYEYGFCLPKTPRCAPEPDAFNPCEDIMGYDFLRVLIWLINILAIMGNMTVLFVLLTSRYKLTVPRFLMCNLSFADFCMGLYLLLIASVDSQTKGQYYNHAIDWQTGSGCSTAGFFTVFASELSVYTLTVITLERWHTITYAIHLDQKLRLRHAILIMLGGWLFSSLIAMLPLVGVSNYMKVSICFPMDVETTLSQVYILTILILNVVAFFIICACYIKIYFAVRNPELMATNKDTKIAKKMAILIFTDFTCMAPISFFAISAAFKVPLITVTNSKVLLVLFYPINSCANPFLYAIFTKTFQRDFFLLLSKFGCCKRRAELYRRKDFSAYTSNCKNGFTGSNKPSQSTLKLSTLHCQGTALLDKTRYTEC
T1 sequence (P16473 whole entry): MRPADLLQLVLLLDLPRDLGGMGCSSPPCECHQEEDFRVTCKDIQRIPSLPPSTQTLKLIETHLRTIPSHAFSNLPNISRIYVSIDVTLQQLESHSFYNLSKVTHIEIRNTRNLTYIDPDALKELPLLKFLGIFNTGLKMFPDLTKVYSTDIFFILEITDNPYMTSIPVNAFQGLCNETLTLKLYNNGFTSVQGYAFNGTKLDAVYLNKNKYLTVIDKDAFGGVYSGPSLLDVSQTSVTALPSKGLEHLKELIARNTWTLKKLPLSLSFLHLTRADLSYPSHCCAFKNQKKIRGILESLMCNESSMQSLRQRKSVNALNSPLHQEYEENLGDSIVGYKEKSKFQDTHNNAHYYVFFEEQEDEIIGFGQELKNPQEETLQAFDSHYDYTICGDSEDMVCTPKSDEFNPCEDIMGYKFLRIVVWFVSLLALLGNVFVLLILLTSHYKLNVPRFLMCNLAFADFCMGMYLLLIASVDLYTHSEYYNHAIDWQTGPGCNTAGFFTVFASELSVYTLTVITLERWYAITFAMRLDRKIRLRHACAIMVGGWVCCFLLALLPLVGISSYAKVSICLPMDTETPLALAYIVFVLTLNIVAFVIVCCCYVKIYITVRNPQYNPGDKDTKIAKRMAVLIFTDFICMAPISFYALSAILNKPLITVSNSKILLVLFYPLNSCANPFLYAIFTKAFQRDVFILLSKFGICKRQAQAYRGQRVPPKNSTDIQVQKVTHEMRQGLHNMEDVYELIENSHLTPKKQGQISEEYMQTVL

EC50 (Thyrotropin receptor [1]): 600 nM
SMILES: COc1ccc(C2Nc3ccccc3C(=O)N2Cc2ccco2)cc1COc1ccc(NC(C)=O)cc1 (stereo unspecified)

EC50 (Thyrotropin receptor [1]): 40 nM
SMILES: COc1ccc(C2Nc3cccc(O)c3C(=O)N2Cc2ccccc2)cc1COc1ccc(NC(C)=O)cc1 (stereo unspecified)

EC50 [2]: 480 nM | IC50 [3]: 4600 nM
SMILES: COc1ccc(C2Nc3ccccc3C(=O)N2Cc2ccco2)cc1COc1c(C)cccc1C (stereo unspecified)

EC50 [2]: 350 nM
SMILES: COc1cccc(-c2nc(SC)nc3sc(C(=O)NC(C)(C)C)c(N)c23)c1

EC50 [2]: > 30000 nM | IC50 [3]: > 30000 nM | IC50 (Thyrotropin receptor [4]): 3500 nM
SMILES: COc1ccc(C2Nc3ccccc3C(=O)N2Cc2cccnc2)cc1COc1c(C)cccc1C (stereo unspecified)

EC50 (Thyrotropin receptor [5]): 130 nM | EC50 [2]: > 10000 nM
SMILES: CC(C)N(C(=O)c1cc(-c2ccccc2)nc2ccccc12)C(C)C

EC50 (Thyrotropin receptor [6]): 8.3 nM | EC50 (Thyrotropin receptor [7]): 8.3 nM
SMILES: CCCc1ccc(-c2cc(C(=O)NCc3ccncc3)c3ccccc3n2)cc1

EC50 (Thyrotropin receptor [7]): 4.2 nM
SMILES: COC/C=C/c1ccc(-c2nc(SC)nc3sc(C(=O)NC(C)(C)C)c(N)c23)cc1

EC50 (Thyrotropin receptor [5]): 540 nM | EC50 [2]: > 10000 nM
SMILES: CC1=C(C(=O)OCc2ccccc2)C(c2ccc(C(F)(F)F)cc2)NC(=O)N1 (stereo unspecified)

EC50 [2]: > 30000 nM | IC50 [3]: > 30000 nM | IC50 (Thyrotropin receptor [4]): 2300 nM
SMILES: COc1ccc(C2Nc3ccccc3C(=O)N2Cc2ccco2)cc1COc1c(C)cc(NC(C)=O)cc1C (stereo unspecified)

EC50 (Thyrotropin receptor [8]): 12300 nM
SMILES: CNc1nc(-c2c(-c3ccccc3)[nH]c3ccccc23)cs1

IC50 [9]: 40000 nM
SMILES: O=C1[C@@H]2[C@H]3C[C@H]([C@@H]4Sc5[nH]c(=O)sc5[C@@H](c5ccccc5)[C@H]34)[C@@H]2C(=O)N1c1ccccc1

EC50 (Thyrotropin receptor [6]): 11.6 nM
SMILES: CC(c1ccccc1)c1nc(N2CCNCC2)nc2ccccc12 (stereo unspecified)
